In US20240398805A1, “QUINAZOLINE DERIVED COMPOUNDS AS EGFR INHIBITORS AND THEIR USES THEREOF” (ACCUTAR BIOTECHNOLOGY INC., priority 2021, published 2024):

Columns and labels:
Format in all cases: cell-based
[1] = system: HCC827-YVMA cells (human ERBB2 exon20 insertion mutant A775_G776ins YVMA); test: Cell growth inhibition (CellTiter-Glo, 3 days) in HCC827-YVMA; conditions: 72 h, 3 days after administration
How it was run: (§1)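 HCC827 cells lentivirally transduced with codon-optimized ASV or YVMA insertion mutants were seeded at 5000 cells/well in RPMI with 10% FBS and incubated overnight. Compound was added at various concentrations from a 10× stock in medium, with 3 days' incubation. Viability read by CellTiter-Glo luminescence.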

HCC827 cells = test: Cell growth inhibition (CellTiter-Glo, 3 days) in HCC827; conditions: Homo sapiens, 72 h, 3 days after administration
How it was run: (§2)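 HCC827 cells were plated at 5000 cells/well in RPMI with 10% FBS, and A431 cells at the same density in DMEM with 10% FBS. After overnight attachment, compounds were added at various concentrations. Luminescence was recorded after plates were equilibrated to room temperature and incubated 10 min with reagent.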

[2] = system: HCC827-ASV cells (human EGFR exon 20 insertion mutant A769_D770insASV); test: Cell growth inhibition (CellTiter-Glo, 3 days) in HCC827-ASV; conditions: 72 h, 3 days after administration
How it was run: as §1

A431 cells = test: Cell growth inhibition (CellTiter-Glo, 3 days) in A431; conditions: Homo sapiens, A-431, 72 h, 3 days after administration
How it was run: as §2

[3] = system: HCC827-SVD cells (human EGFR exon 20 insertion mutant D770_N771 insSVD); test: Cell growth inhibition (CellTiter-Glo, 3 days) in HCC827-SVD; conditions: 72 h, 3 days after administration
How it was run: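 HCC827 cells carrying lentiviral codon-optimized EGFR D770_N771 insSVD, with endogenous EGFR knocked out by CRISPR (single clone), seeded at 5000 cells/well in RPMI with 10% FBS. Viability read by CellTiter-Glo luminescence.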

GI50 [1] [nM]	GI50 (HCC827 cells) [nM]	GI50 [2] [nM]	GI50 (A431 cells) [nM]	GI50 [3] [nM]	Structure (SMILES)
100 to 300	≥ 1000	100 to 300	≥ 1000	100 to 300	C=CC(=O)N1CCC(Nc2cc3c(Nc4ccc(Oc5ccnc(N6CCCN(C)CC6)c5)cc4F)ncnc3cc2OC)CC1 [Example 242, 1-(4-((4-((2-fluoro-4-((2-(4-methyl-1,4-diazepan-1-yl)pyridin-4-yl)oxy)phenyl)amino)-7-methoxyquinazolin-6-yl)amino)piperidin-1-yl)prop-2-en-1-one]
< 30	< 30	< 30	60 to 100	< 30	C=CC(=O)N1CCC(Nc2cc3c(Nc4ccc(Oc5ccnc(NC6CC6)c5)cc4F)ncnc3cc2OC)CC1 [Example 244, 1-(4-((4-((4-((2-(cyclopropylamino)pyridin-4-yl)oxy)-2-fluorophenyl)amino)-7-methoxyquinazolin-6-yl)amino)piperidin-1-yl)prop-2-en-1-one]
< 30	100 to 300	< 30	300 to 600	30 to 60	C=CC(=O)N1CCC(Nc2cc3c(Nc4ccc(Oc5ccnc(NC(C)(C)C)c5)cc4F)ncnc3cc2OC)CC1 [Example 245, 1-(4-((4-((4-((2-(tert-butylamino)pyridin-4-yl)oxy)-2-fluorophenyl)amino)-7-methoxyquinazolin-6-yl)amino)piperidin-1-yl)prop-2-en-1-one]
< 30	30 to 60	< 30	100 to 300	< 30	C=CC(=O)N1CCC(Nc2cc3c(Nc4ccc(Oc5ccnc(NC6CCCC6)c5)cc4F)ncnc3cc2OC)CC1 [Example 246, 1-(4-((4-((4-((2-(cyclopentylamino)pyridin-4-yl)oxy)-2-fluorophenyl)amino)-7-methoxyquinazolin-6-yl)amino)piperidin-1-yl)prop-2-en-1-one]
30 to 60	100 to 300	60 to 100	600 to 1000	60 to 100	C=CC(=O)N1CCC(Nc2cc3c(Nc4ccc(Oc5ccnc(N[C@H]6CCOC6)c5)cc4F)ncnc3cc2OC)CC1 [Example 247, (S)-1-(4-((4-((2-fluoro-4-((2-((tetrahydrofuran-3-yl)amino)pyridin-4-yl)oxy)phenyl)amino)-7-methoxyquinazolin-6-yl)amino)piperidin-1-yl)prop-2-en-1-one]
30 to 60	60 to 100	30 to 60	300 to 600	30 to 60	C=CC(=O)N1CCC(Nc2cc3c(Nc4ccc(Oc5ccnc(N[C@@H]6CCOC6)c5)cc4F)ncnc3cc2OC)CC1 [Example 248, (R)-1-(4-((4-((2-fluoro-4-((2-((tetrahydrofuran-3-yl)amino)pyridin-4-yl)oxy)phenyl)amino)-7-methoxyquinazolin-6-yl)amino)piperidin-1-yl)prop-2-en-1-one]
60 to 100	100 to 300	60 to 100	600 to 1000	30 to 60	C=CC(=O)N1CCC(Nc2cc3c(Nc4ccc(Oc5ccnc(N6CCC[C@H]6C)c5)cc4F)ncnc3cc2OC)CC1 [Example 249, (R)-1-(4-((4-((2-fluoro-4-((2-(2-methylpyrrolidin-1-yl)pyridin-4-yl)oxy)phenyl)amino)-7-methoxyquinazolin-6-yl)amino)piperidin-1-yl)prop-2-en-1-one]
< 30	100 to 300	< 30	≥ 1000	< 30	C=CC(=O)N1CCC(Nc2cc3c(Nc4ccc(Oc5ccnc(N6CC[C@H](CO)C6)c5)cc4F)ncnc3cc2OC)CC1 [Example 250, (S)-1-(4-((4-((2-fluoro-4-((2-(3-(hydroxymethyl)pyrrolidin-1-yl)pyridin-4-yl)oxy)phenyl)amino)-7-methoxyquinazolin-6-yl)amino)piperidin-1-yl)prop-2-en-1-one]
